Legend:
SCF (Kit) mRNA = experiment: SCF mRNA expression in lung and liver of mice after CLP (RT-PCR); assay type: in vivo; settings: 50 mg/kg
Description: (§1) Specifically, donor transgenic GFP (C57BL/6) mice are given 5-FU (150 mg/kg) to kill mature cells. Bone marrow is harvested. C57BL/6 congenic recipient mice are exposed to lethal doses of whole-body radiation (10Gy Cesium-137 at 1.0 Gy/min) and then undergo bone marrow transplant. Engraftment of GFP-BMSC is confirmed after five weeks in select sacrificed mice. Surviving mice are GFP-BMSC chimeras available for investigation. These GFP-BMSC mice then undergo CLP. Specifically, the mice are anesthetized and undergo laparotomy. The sham group undergo laparotomy only. The non-sham group has the cecum ligated and punctured (size and number of punctures may vary depending on the desired severity of injury). Mice are sacrificed at six, twelve and 24 hours. […] Serum is analyzed for levels of cytokines (TNF-α, IL-1, IL-2, IL-4, IL-6, IL-10, and IFN-γ) and chemokines (SDF-1 and SCF). […]
(§2) Additionally, four groups of 20 mice: sham group underwent celiotomy but not CLP; control group underwent CLP and administration of PBS; simultaneous treatment group (STG) had administration of 50 mg/kg MADG PO. […] Serum and tissue levels of pro- and anti-inflammatory cytokines were measured. Serum levels of chemokines stromal cell-derived factor (SDF-1) and stem cell factor (SCF) were measured to ascertain if effects of MADG involve stimulation of bone marrow stromal and stem cells. […]

SDF-1 (Cxcl12) mRNA = experiment: SDF-1 mRNA expression in lung and liver of mice after CLP (RT-PCR); assay type: in vivo; settings: 50 mg/kg
Description: as §1, §2

CCCCC/C=C\C/C=C\CCCCCCCC(=O)OC(COC(C)=O)COC(=O)CCCCCCCCCCCCCCC (racemic) [EC-18, 1-palmitoyl-2-linoleoyl-3-acetyl-rac-glycerol]
increased early expression: kit (SCF) mRNA expression in the liver (SCF (Kit) mRNA; liver, compared to controls (FIG. 5B)) | kit (SCF) mRNA expression in the lung (SCF (Kit) mRNA; lung, compared to controls (FIG. 4B)) | Cxcl2 (SDF-1) mRNA expression in the liver (SDF-1 (Cxcl12) mRNA; liver, compared to controls (FIG. 5A)) | Cxcl2 (SDF-1) mRNA expression in the lung (SDF-1 (Cxcl12) mRNA; lung, compared to controls (FIG. 4A))

— patent US20100010087A1, “Methods for Inducing Stem Cell Migration and Specialization with EC-18” (priority 2008, published 2010)
